# Publication PMC8176454, “Synthesis and Assessment of Novel Probes for Imaging Tau Pathology in Transgenic Mouse and Rat Models” (ACS Chemical Neuroscience, 2021)
# Target: T1, 4R tau151-391 aggregates in brainstem sections from SHR72 rats (Homo sapiens, UniProt P10636)
# T1 construct: tissue AXON Neuroscience; host or cells: brain (brainstem) sections of SHR72 transgenic rats
# Assay: Binding to SHR72 transgenic rat brain sections
# Conditions: 50 μM, colocalization with AT8
# Source text: Since future PET studies for development of these compounds would require kinetic modeling for their assessment in vivo, we tested their performance in tau transgenic rats. Rat brains and blood volumes are about 6- and 10-fold larger, respectively, than those of mice and thus enable higher resolution imaging and ample volume for repeated blood sampling. We used two transgenic rat lines expressing human-truncated tau comprising the proline-rich region and either three microtubule binding domains (3R tau151-391, SH24)[28] or four microtubule binding domains (4R tau151-391, SHR72).[29] […] However, compared to the SHR24 rat brain sections, there were less inclusions detected, which seems to indicate the compounds have preferential binding toward the three repeat forms of tau in these rat models.
# Fresh frozen rat brain coronal sections (10 μm) were stored on slides at −80 °C until use. Sections were fixed in ice cold acetone for 10 min and air-dried and then rehydrated twice for 5 min with buffer (10 mM PBS with 0.1% Triton X-100) before application of 5% bovine serum albumin for 1 h and two more 5 min buffer washes. […] The green autofluorescence of PBB3 and LM229 was visualized using a 488 nm filter and fluorescence of AT8 using a 568 nm filter on a Leica DM6000 microscope.
# T1 sequence (P10636 468-708): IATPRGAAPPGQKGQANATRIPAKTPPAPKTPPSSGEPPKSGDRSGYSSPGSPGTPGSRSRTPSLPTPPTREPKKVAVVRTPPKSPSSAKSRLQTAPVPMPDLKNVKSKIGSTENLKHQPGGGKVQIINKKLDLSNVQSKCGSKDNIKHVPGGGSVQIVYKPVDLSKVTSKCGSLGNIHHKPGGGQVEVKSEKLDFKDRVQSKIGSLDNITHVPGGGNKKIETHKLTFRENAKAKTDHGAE
smiles,measurement,value
CNc1ccc(/C=C/C=C/c2nc3cc(F)c(O)cc3s2)cn1 [LM229],Binding to tau in SHR72 rat brain sections,bound to tau in brain sections from SHR72 rats
